Laboratory results from ChEMBL document CHEMBL1201862, “PubChem BioAssay data set” (2004).
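Five concentrations, 48 hours, 96-well plates. GI50 marks 50% less growth.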 Calls of active or inactive are those of the source. Cut-off read from the data, not from the text of the source: active = GI50 up to about 1.1 µM and inactive = higher.

How the values were obtained:
Assay in all cases: growth of human tumour cells (NCI), 48 h
SK-OV-3 = system: SK-OV-3
SW-620 = system: SW-620
UACC-257 = system: UACC-257
RXF 393 = system: RXF 393
COLO 205 = system: COLO 205
OVCAR-4 = system: OVCAR-4
M14 = system: M14
IGROV-1 = system: IGROV-1
HCT-15 = system: HCT-15
HL-60 = system: HL-60
SK-MEL-28 = system: SK-MEL-28
K562 = system: K562
HT-29 = system: HT-29
HOP-62 = system: HOP-62
OVCAR-8 = system: OVCAR-8
SN12C = system: SN12C
CCRF-CEM = system: CCRF-CEM
Malme-3M = system: Malme-3M
HOP-92 = system: HOP-92
NCI-H226 = system: NCI-H226

| Structure (SMILES) | GI50 (SK-OV-3) | GI50 (SW-620) | GI50 (UACC-257) | GI50 (RXF 393) | GI50 (COLO 205) | GI50 (OVCAR-4) | GI50 (M14) | GI50 (IGROV-1) | GI50 (HCT-15) | GI50 (HL-60) | GI50 (SK-MEL-28) | GI50 (K562) | GI50 (HT-29) | GI50 (HOP-62) | GI50 (OVCAR-8) | GI50 (SN12C) | GI50 (CCRF-CEM) | GI50 (Malme-3M) | GI50 (HOP-92) | GI50 (NCI-H226) |
| --- | --- | --- | --- | --- | --- | --- | --- | --- | --- | --- | --- | --- | --- | --- | --- | --- | --- | --- | --- | --- |
| CSc1nc(N)c2c(-c3ccccc3)c3c(nc2n1)CCCC3 | 87.7 µM (inactive) | > 100 µM (inactive) | > 100 µM (inactive) | 29.7 µM (inactive) | > 100 µM (inactive) | 29.6 µM (inactive) | > 100 µM (inactive) | > 100 µM (inactive) | > 100 µM | > 100 µM (inactive) | > 100 µM (inactive) | > 100 µM (inactive) | > 100 µM (inactive) | 98.4 µM (inactive) | 20.8 µM (inactive) | > 100 µM (inactive) | > 100 µM (inactive) | 82 µM (inactive) | – | – |
| COCCOCOc1ccc(OCc2ccccc2)cc1 | > 100 µM (inactive) | > 100 µM (inactive) | > 69.7 µM (inactive) | > 100 µM (inactive) | > 100 µM (inactive) | 35.7 µM (inactive) | – | > 100 µM (inactive) | > 100 µM | 22.5 µM (inactive) | > 100 µM (inactive) | 64.9 µM (inactive) | > 100 µM (inactive) | > 100 µM (inactive) | > 100 µM (inactive) | > 100 µM (inactive) | 36.6 µM (inactive) | > 100 µM (inactive) | > 100 µM (inactive) | > 100 µM (inactive) |
| Cc1ccc(NC(=O)c2cccc([N+](=O)[O-])c2O)c(C)c1 | 22.9 µM (inactive) | 28.4 µM (inactive) | 14 µM (inactive) | – | 23.9 µM (inactive) | 11.6 µM (inactive) | 36.6 µM (inactive) | 9.84 µM (inactive) | – | 17.2 µM (inactive) | 6.97 µM (inactive) | 21 µM (inactive) | 29.4 µM (inactive) | 33.3 µM (inactive) | 22.9 µM (inactive) | 15.8 µM (inactive) | 17.9 µM (inactive) | 1.7 µM (inactive) | – | 17.1 µM (inactive) |
| Cc1ccccc1-c1nc2c(C(=O)NCCN(C)C)cccc2[nH]1 | 46.5 µM (inactive) | 26.5 µM (inactive) | 39.8 µM (inactive) | 78.9 µM (inactive) | 18.5 µM (inactive) | 49.1 µM (inactive) | – | 58.5 µM (inactive) | 43.8 µM | 26.5 µM (inactive) | > 93.3 µM (inactive) | 20.9 µM (inactive) | 31.8 µM (inactive) | 31.5 µM (inactive) | 42.8 µM (inactive) | 40.4 µM (inactive) | 27 µM (inactive) | 30.5 µM (inactive) | 20.6 µM (inactive) | 16 µM (inactive) |
| CC(C)(C)OC(=O)NCC(=O)NC1c2ccsc2/C(=N/O)[C@H]1O (stereo partly drawn) | > 100 µM (inactive) | > 100 µM (inactive) | > 100 µM (inactive) | > 100 µM (inactive) | > 100 µM (inactive) | > 100 µM (inactive) | > 100 µM (inactive) | > 100 µM (inactive) | > 100 µM | > 100 µM (inactive) | > 100 µM (inactive) | 5.28 µM (inactive) | > 100 µM (inactive) | > 100 µM (inactive) | > 100 µM (inactive) | > 100 µM (inactive) | > 100 µM (inactive) | > 100 µM (inactive) | 7.36 µM (inactive) | > 100 µM (inactive) |
| O=C1OC(c2ccc(O)c(F)c2)(c2ccc(O)c(F)c2)c2cccc3cccc1c23 | > 25 µM (inactive) | > 25 µM (inactive) | > 25 µM (inactive) | > 25 µM (inactive) | 1.26 µM (inactive) | 0.0601 µM (active) | > 25 µM (inactive) | > 25 µM (inactive) | > 25 µM | 5.57 µM (inactive) | 0.0643 µM (active) | 14.8 µM (inactive) | > 25 µM (inactive) | > 25 µM (inactive) | > 25 µM (inactive) | 1.34 µM (inactive) | > 25 µM (inactive) | > 25 µM (inactive) | > 25 µM (inactive) | > 25 µM (inactive) |
| COc1cc2c(cc1OC)C(C1(O)CCCCC1)NCC2 (stereo not drawn) | > 100 µM (inactive) | > 100 µM (inactive) | > 100 µM (inactive) | > 100 µM (inactive) | > 100 µM (inactive) | – | > 100 µM (inactive) | > 100 µM (inactive) | > 100 µM | > 100 µM (inactive) | > 100 µM (inactive) | > 100 µM (inactive) | > 100 µM (inactive) | > 100 µM (inactive) | > 100 µM (inactive) | > 100 µM (inactive) | > 100 µM (inactive) | > 100 µM (inactive) | > 100 µM (inactive) | > 100 µM (inactive) |
| COc1cc2c(cc1Oc1ccc(OC)c3c1CC1c4c(cc(OC)c(OC)c4-3)CCN1C)CC1c3c(cc(OC)c(OC)c3-2)CCN1C (stereo not drawn) | 17.8 µM (inactive) | 1.95 µM (inactive) | 1.65 µM (inactive) | 1.52 µM (inactive) | 1.48 µM (inactive) | 2.74 µM (inactive) | – | 3.86 µM (inactive) | 2.02 µM | 0.968 µM (active) | 1.82 µM (inactive) | 1.39 µM (inactive) | 0.35 µM (active) | 17.1 µM (inactive) | 5.3 µM (inactive) | 6.59 µM (inactive) | 2.45 µM (inactive) | 1.85 µM (inactive) | 2.34 µM (inactive) | 1.53 µM (inactive) |
| COc1cc(Cc2ccc3c(c2C#N)N(C)c2ccccc2S3)cc(OC)c1OC | > 100 µM (inactive) | > 100 µM (inactive) | 12.1 µM (inactive) | 15.3 µM (inactive) | 36.9 µM (inactive) | > 100 µM (inactive) | > 100 µM (inactive) | > 100 µM (inactive) | 11 µM | 13.7 µM (inactive) | > 100 µM (inactive) | 4.39 µM (inactive) | 53.7 µM (inactive) | 59.7 µM (inactive) | 19.8 µM (inactive) | 22.3 µM (inactive) | 39.3 µM (inactive) | 34.3 µM (inactive) | 48.5 µM (inactive) | 62.4 µM (inactive) |
| O=C1c2ccccc2OCC12OC21C=CC(Cl)=CC1 (stereo not drawn) | 51.8 µM (inactive) | 29.4 µM (inactive) | 32.2 µM (inactive) | 24.9 µM (inactive) | 18 µM (inactive) | 12.4 µM (inactive) | 33.5 µM (inactive) | 42.9 µM (inactive) | 28.6 µM | 15.7 µM (inactive) | 28.4 µM (inactive) | 16.6 µM (inactive) | 19.1 µM (inactive) | 33.7 µM (inactive) | – | 15.7 µM (inactive) | – | 18.5 µM (inactive) | 36.1 µM (inactive) | 30.5 µM (inactive) |
| CS(=O)(=O)C(C#N)c1nc2ccccc2nc1Cl (stereo not drawn) | > 100 µM (inactive) | > 100 µM (inactive) | > 73.3 µM (inactive) | > 100 µM (inactive) | > 100 µM (inactive) | > 73.5 µM (inactive) | > 100 µM (inactive) | > 66.5 µM (inactive) | > 35.2 µM | > 100 µM (inactive) | > 100 µM (inactive) | > 100 µM (inactive) | > 100 µM (inactive) | > 100 µM (inactive) | > 19.5 µM (inactive) | > 100 µM (inactive) | > 94 µM (inactive) | > 100 µM (inactive) | > 100 µM (inactive) | > 100 µM (inactive) |
| Cc1cc(NS(=O)(=O)c2ccc(NC(=O)c3cccc4c(Nc5ccc(S(N)(=O)=O)cc5)c5ccccc5nc34)cc2)no1 | > 100 µM (inactive) | – | > 100 µM (inactive) | > 100 µM (inactive) | – | > 100 µM (inactive) | > 100 µM (inactive) | – | > 100 µM | > 100 µM (inactive) | > 100 µM (inactive) | 98.2 µM (inactive) | > 100 µM (inactive) | > 100 µM (inactive) | – | > 100 µM (inactive) | 85.9 µM (inactive) | > 100 µM (inactive) | – | – |
| CC(=C/c1ccccc1)/C=C1/NC(=S)N(/C=C2\C(=O)Oc3ccccc3C2=O)C1=O | – | – | 66.7 µM (inactive) | 0.0664 µM (active) | 36.7 µM (inactive) | 34.9 µM (inactive) | 54 µM (inactive) | – | 45.7 µM | 25.8 µM (inactive) | 52.1 µM (inactive) | 39.6 µM (inactive) | – | 83.2 µM (inactive) | 52.4 µM (inactive) | 98.6 µM (inactive) | 33.8 µM (inactive) | – | 7.78 µM (inactive) | 67.9 µM (inactive) |
| CC(=O)ON1C(=O)c2cccc3cccc(c23)C1=O | 34.4 µM (inactive) | 5.62 µM (inactive) | 23.8 µM (inactive) | 7.23 µM (inactive) | 26.8 µM (inactive) | 11.7 µM (inactive) | 21.6 µM (inactive) | 7.28 µM (inactive) | 18 µM | 10.9 µM (inactive) | 17.9 µM (inactive) | 20.1 µM (inactive) | 27.2 µM (inactive) | 22.8 µM (inactive) | 27.1 µM (inactive) | – | 9.66 µM (inactive) | 20 µM (inactive) | > 100 µM (inactive) | – |
| NC(=O)Oc1ccccc1 [CARBAMIC ACID PHENYL ESTER] | > 100 µM (inactive) | > 100 µM (inactive) | > 100 µM (inactive) | > 100 µM (inactive) | > 100 µM (inactive) | > 100 µM (inactive) | > 100 µM (inactive) | – | > 100 µM | > 100 µM (inactive) | > 100 µM (inactive) | > 100 µM (inactive) | > 100 µM (inactive) | – | > 100 µM (inactive) | > 100 µM (inactive) | > 100 µM (inactive) | – | > 100 µM (inactive) | > 100 µM (inactive) |
